Source: ChEMBL document CHEMBL1140254, “A novel [99mTc[triple bond]N]2+ complex of metronidazole xanthate as a potential agent for targeting hypoxia” (Bioorg Med Chem Lett, 2005)

Columns and labels:
[1] = Biodistribution of the labeled compound in mice spleen 60 min after post-injection; type: ADME, organism-based; conditions: mouse, in vivo, 1 h
[2] = Biodistribution of the labeled compound in mice blood 60 min after post-injection; type: ADME, organism-based; conditions: mouse, in vivo, 1 h
[3] = Biodistribution of the labeled compound in mice stomach 60 min after post-injection; type: ADME, organism-based; conditions: mouse, in vivo, 1 h
[4] = Biodistribution of the labeled compound in mice int+GB 180 min after post-injection; type: ADME, organism-based; conditions: mouse, in vivo, 3 h
[5] = Biodistribution of the labeled compound in mice kidney 30 min after post-injection; type: ADME, organism-based; conditions: mouse, in vivo, 0.5 h
[6] = Biodistribution of the labeled compound in mice lungs 180 min after post-injection; type: ADME, organism-based, Lung; conditions: mouse, in vivo, 3 h
[7] = Biodistribution of the labeled compound in mice tumor 180 min after post-injection at adose 1.36 g; type: ADME, organism-based; conditions: mouse, in vivo, 3 h
[8] = Biodistribution of the labeled compound in mice kidney 180 min after post-injection; type: ADME, organism-based; conditions: mouse, in vivo, 3 h
[9] = Biodistribution of the labeled compound in mice stomach 180 min after post-injection; type: ADME, organism-based; conditions: mouse, in vivo, 3 h
[10] = Biodistribution of the labeled compound in mice heart 180 min after post-injection; type: ADME, organism-based; conditions: mouse, in vivo, 3 h
[11] = Biodistribution of the labeled compound in mice muscle 60 min after post-injection; type: ADME, organism-based, Muscle tissue; conditions: mouse, in vivo, 1 h
[12] = organism: Mus musculus; assay: Tumor/blood ratio of the label compound in mice 180 min after post injection; type: functional
[13] = Biodistribution of the labeled compound in mice int+GB 60 min after post-injection; type: ADME, organism-based; conditions: mouse, in vivo, 1 h
[14] = Biodistribution of the labeled compound in mice bone 30 min after post-injection; type: ADME, organism-based, Bone element; conditions: mouse, in vivo, 0.5 h
[15] = organism: Mus musculus; assay: Tumor/muscle ratio of the label compound in mice 60 min after post injection; type: functional, Muscle tissue
[16] = Biodistribution of the labeled compound in mice tumor 60 min after post-injection at adose 1.44 g; type: ADME, organism-based; conditions: mouse, in vivo, 1 h
[17] = Biodistribution of the labeled compound in mice heart 30 min after post-injection; type: ADME, organism-based; conditions: mouse, in vivo, 0.5 h
[18] = Biodistribution of the labeled compound in mice int +GB 30 min after post-injection; type: ADME, organism-based; conditions: mouse, in vivo, 0.5 h
[19] = Biodistribution of the labeled compound in mice bone 60 min after post-injection; type: ADME, organism-based, Bone element; conditions: mouse, in vivo, 1 h
[20] = Biodistribution of the labeled compound in mice bone 180 min after post-injection; type: ADME, organism-based, Bone element; conditions: mouse, in vivo, 3 h
[21] = Biodistribution of the labeled compound in mice muscle 180 min after post-injection; type: ADME, organism-based, Muscle tissue; conditions: mouse, in vivo, 3 h
[22] = Biodistribution of the labeled compound in mice blood 30 min after post-injection; type: ADME, organism-based; conditions: mouse, in vivo, 0.5 h
[23] = Biodistribution of the labeled compound in mice Muscle 30 min after post-injection; type: ADME, organism-based, Muscle tissue; conditions: mouse, in vivo, 0.5 h
[24] = Biodistribution of the labeled compound in mice kidney 60 min after post-injection; type: ADME, organism-based; conditions: mouse, in vivo, 1 h
[25] = Biodistribution of the labeled compound in mice lungs 30 min after post-injection; type: ADME, organism-based, Lung; conditions: mouse, in vivo, 0.5 h
[26] = Biodistribution of the labeled compound in mice blood 180 min after post-injection; type: ADME, organism-based; conditions: mouse, in vivo, 3 h
[27] = Biodistribution of the labeled compound in mice liver 180 min after post-injection; type: ADME, organism-based; conditions: mouse, in vivo, 3 h
[28] = Biodistribution of the labeled compound in mice spleen 30 min after post-injection; type: ADME, organism-based; conditions: mouse, in vivo, 0.5 h
[29] = Biodistribution of the labeled compound in mice tumor 30 min after post-injection at a dose of 1.42 g; type: ADME, organism-based; conditions: mouse, in vivo, 0.5 h
[30] = Biodistribution of the labeled compound in mice spleen 180 min after post-injection; type: ADME, organism-based; conditions: mouse, in vivo, 3 h
[31] = Biodistribution of the labeled compound in mice liver 30 min after post-injection; type: ADME, organism-based; conditions: mouse, in vivo, 0.5 h
[32] = organism: Mus musculus; assay: Tumor/blood ratio of the label compound in mice 30 min after post injection; type: functional
[33] = organism: Mus musculus; assay: Tumor/muscle ratio of the label compound in mice 30 min after post injection; type: functional, Muscle tissue
[34] = Biodistribution of the labeled compound in mice lungs 60 min after post-injection; type: ADME, organism-based, Lung; conditions: mouse, in vivo, 1 h
[35] = Biodistribution of the labeled compound in mice stomach 30 min after post-injection; type: ADME, organism-based; conditions: mouse, in vivo, 0.5 h
[36] = organism: Mus musculus; assay: Tumor/blood ratio of the label compound in mice 60 min after post injection; type: functional
[37] = Biodistribution of the labeled compound in mice liver 60 min after post-injection; type: ADME, organism-based; conditions: mouse, in vivo, 1 h
[38] = organism: Mus musculus; assay: Tumor/muscle ratio of the label compound in mice 180 min after post injection; type: functional, Muscle tissue
[39] = Biodistribution of the labeled compound in mice heart 60 min after post-injection; type: ADME, organism-based; conditions: mouse, in vivo, 1 h

## Cc1ncc([N+](=O)[O-])n1CCOC(=S)[S-].[Na+] [METRONIDAZOLE XANTHATE]
[1]
  Biodistribution: 0.34
[2]
  Biodistribution: 6.75
[3]
  Biodistribution: 0.74
[4]
  Biodistribution: 32.52
[5]
  Biodistribution: 4.25
[6]
  Biodistribution: 0.75
[7]
  Biodistribution: 0.41
[8]
  Biodistribution: 2.87
[9]
  Biodistribution: 0.71
[10]
  Biodistribution: 0.27
[11]
  Biodistribution: 6.43
[12]
  Ratio: 0.62
[13]
  Biodistribution: 20.19
[14]
  Biodistribution: 2.59
[15]
  Ratio: 2.15
[16]
  Biodistribution: 0.43
[17]
  Biodistribution: 0.38
[18]
  Biodistribution: 12.46
[19]
  Biodistribution: 2.43
[20]
  Biodistribution: 2.27
[21]
  Biodistribution: 4.2
[22]
  Biodistribution: 11.45
[23]
  Biodistribution: 11.19
[24]
  Biodistribution: 3.18
[25]
  Biodistribution: 1.59
[26]
  Biodistribution: 3.95
[27]
  Biodistribution: 18.37
[28]
  Biodistribution: 0.25
[29]
  Biodistribution: 0.4
[30]
  Biodistribution: 0.27
[31]
  Biodistribution: 29.32
[32]
  Ratio: 0.2
[33]
  Ratio: 1.19
[34]
  Biodistribution: 1.09
[35]
  Biodistribution: 1.68
[36]
  Ratio: 0.36
[37]
  Biodistribution: 23.53
[38]
  Ratio: 3.35
[39]
  Biodistribution: 0.27
